Assay: Subcutaneous trials in males: vomiting and tolerability
Type: in vivo, human
Conditions: intramuscular administration, males

## Cc1nccn1CC1CCc2c(c3ccccc3n2C)C1=O (stereo not shown) [ondansetron, reference compound]
  effect on bremelanotide-induced vomiting: Vomiting could be resolved
